In US8686016B2, “Schweinfurthins and uses thereof” (The United States of America, as represented by the …, priority 2009, dated 2014):

How the values were obtained:
MPNST K14553 cells = test: XTT cell proliferation assay, K14553; type: cell-based, mouse
Method: (§1) Establishment of NPcis MPNST cell lines: Mice were euthanized by CO2 asphyxiation and tumors were dissected. The tumor volume was measured. The tumor was then cut in half, and ½ fixed in 4% PFA. The other half was rinsed, then cut into 24 pieces of approximately equal size. Each piece was diced with a razor blade and placed in 1 well of a 24 well plate, along with 625 μL of Triple Express (Gibco, Grand Island, N.Y., USA) and 5 μL of recombinant DNAse (Roche, Indianapolis, Ind., USA). Tumors were triturated, then incubated at 37° C. in a 5% CO2 incubator for 2-5 hours, with an additional trituration halfway through incubation time. At the end of the incubation, tumor pieces were triturated again, and suspended cells were transferred to 1.5 mL eppendorf tubes. […] Both plates were monitored for cell growth, grown up to 10 cm plates, and frozen down in 10% DMSO. […]
(§2) XTT Cell Proliferation Assay: Cells were seeded into 96-well plates at a density of 2,000 cells/well and allowed to reattach overnight. Cells were treated with SA, synthetic analogs, camptothecin (NCI Chemotherapeutics Repository, Md., USA), or DMSO control at the indicated concentrations continuously for 48 hours followed by assay in the 96-well plate for relative viable cell number using the dye […] (XTT) and a Wallac-Victor 2 plate reader (Perkin-Elmer, Waltham, Mass., USA). […]

MPNST T265 cells = test: XTT cell proliferation assay, T265; type: cell-based, human
Method: (§3) XTT Cell Proliferation Assay: Cells were seeded into 96-well plates at a density of 2,000 cells/well and allowed to reattach overnight. Cells were treated with SA, synthetic analogs, camptothecin (NCI Chemotherapeutics Repository, Md., USA), or DMSO control at the indicated concentrations continuously for 48 hours followed by assay in the 96-well plate for relative viable cell number using the dye […] (XTT) and a Wallac-Victor 2 plate reader (Perkin-Elmer, Waltham, Mass., USA). Absorbance was determined at 450 nm with 650 nm as a reference reading. Primary astrocytes were additionally assayed at a 96 hour time point.
Cell lines and culture: Human MPNST cell lines (STS26T and T265) were obtained from the Pediatric Oncology Branch, NCI (Bethesda, Md., USA).

Chemical stability = type: physicochemical; conditions: compared with the free resorcinols
NCI 60-cell line panel = test: NCI 60 cell line assay; type: cell-based, human
MPNST K16561 cells = test: XTT cell proliferation assay, K16561; type: cell-based, mouse
Method: as §1, §2

[1] = system: KR158 cells stably transfected with GFP-actin; test: Cell morphology / actin confocal microscopy, KR158 GFP-actin; type: cell-based, mouse; conditions: 16-18 hrs treatment
Method: Doxorubicin studies: KR158 stably transfected with GFP-actin were treated with 25 and 50 μM doxorubicin for 18 hrs continuously.
Cell Morphology Assays and Confocal Microscopy: To assay cytoskeleton morphology, KR158 cells, mouse primary astrocytes, KR158 clones expressing the NF1-GRD constructs, K14553 cells, and A549 were seeded to cover slips and allowed to reattach overnight. Cells were treated for 18 hours with either the indicated concentrations of SA, or the vehicle control DMSO. The cover slips were fixed in 3.7% paraformaldehyde, permeablized in 0.1% Triton-X100, and stained with Alexa Fluor 488-phalloidin (Invitrogen, Carlsbad, Calif., USA) to detect actin and cells were mounted in Prolong Antifade containing DAPI (Invitrogen) to stain nuclei. The cells were imaged on a LSM510 confocal microscope (Carl Zeiss Inc., Jena, Germany). […] KR158 GFP-actin transfected cells were seeded to 8-well chamber slides, allowed to reattach, and then treated with indicated concentrations of SA. Actin structures were monitored continuously over a 16 hr period using confocal microscopy equipped with a growth chamber (37° C., humidified atmosphere and 5% CO2). To compare SA to Rho/Rock inhibitors, KR158 GFP-actin cells were treated with SA or with the Rho pathway inhibitors Rock inhibitor Y-27632 (Sigma, St. Louis, Mo., USA), and the Rho inhibitor C3 transferase (Cytoskeleton, Inc., Denver, Colo., USA, cat# CT04) for 16 hrs, and then examined by confocal microscopy.

A549 cells = test: XTT cell proliferation assay, A549; type: cell-based, human; conditions: 48 hours
Method: as §3

CC(C)=CCC/C(C)=C/Cc1c(O)cc(/C=C/c2cc(O)c3c(c2)C[C@@H]2C(C)(C)[C@H](O)CC[C@@]2(C)O3)cc1O [3dSB, 3-Deoxyschweinfurthin B]
inhibition of proliferation (percent viability versus control) (MPNST K14553 cells): sensitive

COc1cc(/C=C/c2cc3c(c(OC)c2)O[C@]2(C)C[C@@H](O)[C@@H](O)C(C)(C)[C@H]2C3)cc(O)c1CC=C(C)C [5′MeSE, 5′-Methylschweinfurthin E]
inhibition of proliferation (percent viability versus control) (MPNST T265 cells): sensitive | chemical stability (Chemical stability): more stable chemically than the free resorcinols | GI50 (NCI 60-cell line panel): low nM range

COc1cc(/C=C/c2cc(O)c3c(c2)C[C@@H]2C(C)(C)[C@H](O)CC[C@@]2(C)O3)cc(O)c1CC=C(C)C [5′MeSG, 5′-Methylschweinfurthin G]
inhibition of proliferation (percent viability versus control) (MPNST T265 cells): sensitive | chemical stability (Chemical stability): more stable chemically than the free resorcinols | inhibition of proliferation (percent viability versus control) (MPNST K16561 cells): sensitive | GI50 (NCI 60-cell line panel): low nM range

COc1cc(/C=C/c2cc(O)c(C/C=C(\C)CCC=C(C)C)c(O)c2)cc2c1O[C@]1(C)C[C@@H](O)[C@@H](O)C(C)(C)[C@H]1C2 [SB, Schweinfurthin B]
inhibition of proliferation (percent viability versus control) (MPNST T265 cells): sensitive | differential cytotoxicity (NCI 60-cell line panel; NCI 60-cell line panel): significant differential cytotoxicity

C[C@@H](N)[C@H]1CC[C@H](C(=O)Nc2ccncc2)CC1 [Y-27632, reference compound]
F-actin staining / stress fibers [1]: dramatic loss of F-actin staining

CC[C@@]1(O)C(=O)OCc2c1cc1n(c2=O)Cc2cc3ccccc3nc2-1 [camptothecin, reference compound]
inhibition of proliferation (percent viability versus control) (A549 cells): sensitive

COc1cccc2c1C(=O)c1c(O)c3c(c(O)c1C2=O)C[C@@](O)(C(=O)CO)C[C@@H]3O[C@H]1C[C@H](N)[C@H](O)[C@H](C)O1 [doxorubicin, reference compound]
F-actin staining / stress fibers [1]: retained stress fibers

C3 transferase
F-actin staining / stress fibers [1]: dramatic loss of F-actin staining
